pIC50: −log10 of the molar value. Counter-ions that a name gives are not always drawn.
Biological target: T1, His-EBNA1 (DNA binding domain of EBNA1, amino acids 459-607) (Epstein-Barr virus, UniProt P03211)
T1 construct: made in house; host or cells: E. coli
Assay: Inhibition of 5′-biotin-oPL4624 binding to His-EBNA1 using Alpha Screen technology
Conditions: Alpha Screen Activity (IC50, inhibition of 5′-biotin-oPL4624 binding to His-EBNA1), 15 nM His-EBNA1, 0.2 nM bt-oPL4624, 2 hr room temperature
Experimental: Inhibition of 5′-biotin-oPL4624 binding to His-EBNA1 using Alpha Screen technology: Assays were performed using the DNA binding domain of EBNA1 (amino acids 459-607), which was His-tagged (His-EBNA1) and the self-complementary biotinylated (bt) oligonucleotide with the sequence 5′-bt-[…]-ATGCTACCC-3′ (bt-oPL4624). The protein was expressed in E. coli and purified according to Barwell, et al. (Barwell J A, Bochkarev A, Pfuetzner R A, Tong H, Yang D S, Frappier L, Edwards A M. (1995) Overexpression, purification, and crystallization of the DNA binding and dimerization domains of the Epstein-Barr virus nuclear antigen 1. J Biol Chem. 270: 20556-9.). The bt-oPL4624 oligonucleotide was purchased from Integrated DNA Technologies, Inc (IDT). AlphaScreen donor, acceptor beads and white, opaque 384-well assay plates were purchased from PerkinElmer, Inc.
Assays contained 15 nM His-EBNA1, 0.2 nM bt-oPL4624, 5 μg/mL AlphaScreen streptavidin donor beads and nickel chelate acceptor beads, and a series of concentrations of test compound ranging from 3.2 nM to 100 μM in a total volume of 40 μL assay buffer (25 mM Tris, pH 7.2, 160 mM NaCl, 1 mM MgCl2). His-EBNA1 (30 nM) and bt-oPL4624 (0.4 nM) were preincubated with 10 μg/mL nickel chelate AlphaScreen acceptor bead, or 10 μg/mL streptavidin AlphaScreen donor bead, respectively, for 30 minutes at room temperature in assay buffer. Twenty microliters of His-EBNA1/acceptor bead mix and bt-oPL4624/donor bead mix were transferred to assay plates containing […] of 1:3 serial dilutions of test compounds previously prepared in DMSO at concentrations ranging from 0.32 μM to 10 mM. Nonspecific binding was determined with 5 μg/mL AlphaScreen acceptor bead in the absence of His-EBNA1. After 2 hr incubation at room temperature, the AlphaScreen signal was measured on the Envision plate reader (PerkinElmer, Inc.) at 680 nm excitation and 570 nm emission. Inhibition values at each concentration of test compound were determined by setting 100% equal to raw data values in the absence of EBNA1 and 0% equal to the raw data values in the presence of EBNA1. Nonlinear regression fits of the inhibition values to a one-site dose-response equation were performed using GraphPad Prism.

T1 sequence (P03211 459-607): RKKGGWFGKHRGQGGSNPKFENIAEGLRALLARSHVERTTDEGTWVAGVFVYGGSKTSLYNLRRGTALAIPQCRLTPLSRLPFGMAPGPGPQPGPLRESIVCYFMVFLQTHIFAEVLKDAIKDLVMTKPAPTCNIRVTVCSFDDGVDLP

Structure (SMILES)	pIC50
O=C(O)c1cccc(C#CC2CC2)c1-n1cccc1 [Entry 62, 3-(2-cyclopropylethynyl)-2-(1H-pyrrol-1-yl)benzoic acid]	> 6.00
CC(C)(O)C#Cc1cccc(C(=O)O)c1-n1cccc1 [Entry 63, 3-(3-hydroxy-3-methylbut-1-yn-1-yl)-2-(1H-pyrrol-1-yl)benzoic acid]	> 6.00
CN(C)CC#Cc1cccc(C(=O)O)c1-n1cccc1 [Entry 64, 3-[3-(dimethylamino)prop-1-yn-1-yl]-2-(1H-pyrrol-1-yl)benzoic acid]	3.00 to 4.00
O=C(O)c1cccc(C#CCCc2ccccc2)c1-n1cccc1 [Entry 65, 3-(4-phenylbut-1-yn-1-yl)-2-(1H-pyrrol-1-yl)benzoic acid]	> 6.00
O=C(O)c1cccc(C#CCCCO)c1-n1cccc1 [Entry 66, 3-(5-hydroxypent-1-yn-1-yl)-2-(1H-pyrrol-1-yl)benzoic acid]	> 6.00
COc1ccc(C#Cc2cccc(C(=O)O)c2-n2cccc2)cc1 [Entry 67, 3-[2-(4-methoxyphenyl)ethynyl]-2-(1H-pyrrol-1-yl)benzoic acid]	5.00 to 6.00
O=C(O)c1cccc(C#Cc2ccncc2)c1-n1cccc1 [Entry 68, 3-[2-(pyridin-4-yl)ethynyl]-2-(1H-pyrrol-1-yl)benzoic acid]	> 6.00
O=C(O)c1cccc(C#Cc2cccnc2)c1-n1cccc1 [Entry 69, 3-[2-(pyridin-3-yl)ethynyl]-2-(1H-pyrrol-1-yl)benzoic acid]	4.00 to 5.00
COc1cccc(C#Cc2cccc(C(=O)O)c2-n2cccc2)c1 [Entry 70, 3-[2-(3-methoxyphenyl)ethynyl]-2-(1H-pyrrol-1-yl)benzoic acid]	5.00 to 6.00
O=C(O)c1cccc(C#Cc2ccc(F)cc2)c1-n1cccc1 [Entry 71, 3-[2-(4-fluorophenyl)ethynyl]-2-(1H-pyrrol-1-yl)benzoic acid]	5.00 to 6.00
O=C(O)c1cccc(C#Cc2ccccc2)c1-n1cccc1 [Entry 72, 3-(2-phenylethynyl)-2-(1H-pyrrol-1-yl)benzoic acid]	> 6.00
CN(CC#Cc1cccc(C(=O)O)c1-n1cccc1)Cc1ccccc1 [Entry 73, 3-{3-[benzyl(methyl)amino]prop-1-yn-1-yl}-2-(1H-pyrrol-1-yl)benzoic acid]	> 6.00
O=C(O)c1cccc(C#CCn2ccnc2)c1-n1cccc1 [Entry 74, 3-[3-(1H-imidazol-1-yl)prop-1-yn-1-yl]-2-(1H-pyrrol-1-yl)benzoic acid]	> 6.00
O=C(O)c1cccc(C#Cc2cscn2)c1 [Entry 75, 3-[2-(1,3-thiazol-4-yl)ethynyl]benzoic acid]	4.00 to 5.00
O=C(O)c1cccc(C#Cc2c[nH]c3ncccc23)c1 [Entry 76, 3-(2-{1H-pyrrolo[2,3-b]pyridin-3-yl}ethynyl)benzoic acid]	4.00 to 5.00
O=C(O)c1cccc(C#Cc2ccc3[nH]ccc3c2)c1 [Entry 77, 3-[2-(1H-indol-5-yl)ethynyl]benzoic acid]	> 6.00
Nc1c(C#Cc2c[nH]c3ncccc23)cccc1C(=O)O [Entry 78]	> 6.00
Nc1c(C#Cc2cccc3[nH]ccc23)cccc1C(=O)O [Entry 79, 2-amino-3-[2-(1H-indol-4-yl)ethynyl]benzoic acid]	> 6.00
Nc1c(C#Cc2ccc3cc[nH]c3c2)cccc1C(=O)O [Entry 80, 2-amino-3-[2-(1H-indol-6-yl)ethynyl]benzoic acid]	> 6.00
Nc1c(C#Cc2ccc3[nH]ccc3c2)cccc1C(=O)O [Entry 81]	> 6.00
Nc1c(C#Cc2cccc(CO)c2)cccc1C(=O)O [Entry 82, 2-amino-3-{2-[3-(hydroxymethyl)phenyl]ethynyl}benzoic acid]	5.00 to 6.00
Nc1c(C#Cc2cccc(O)c2)cccc1C(=O)O [Entry 83]	5.00 to 6.00
Nc1c(C#Cc2ccccc2)cccc1C(=O)O [Entry 84]	4.00 to 5.00
O=C(O)c1cccc(C#Cc2ccccc2)c1F [Entry 85, 2-fluoro-3-(2-phenylethynyl)benzoic acid]	5.00 to 6.00

Structure (SMILES)	pIC50
O=C(O)c1cccc(C#Cc2c[nH]c3ncccc23)c1F [Entry 86, 2-fluoro-3-(2-{1H-pyrrolo[2,3-b]pyridin-3-yl}ethynyl)benzoic acid]	4.00 to 5.00
O=C(O)c1cccc(C#Cc2cnc3cnccn23)c1F [Entry 87, 2-fluoro-3-(2-{imidazo[1,2-a]pyrazin-3-yl}ethynyl)benzoic acid]	> 6.00
O=C(O)c1cccc(C#Cc2ccccc2CO)c1F [Entry 88, 2-fluoro-3-{2-[2-(hydroxymethyl)phenyl]ethynyl}benzoic acid]	5.00 to 6.00
O=C(O)c1cccc(C#Cc2cscn2)c1F [Entry 89]	5.00 to 6.00
O=C(O)c1cccc(C#Cc2ccccn2)c1 [Entry 90, 3-[2-(pyridin-2-yl)ethynyl]benzoic acid]	3.00 to 4.00
O=C(O)c1cccc(C#Cc2cccnc2)c1 [Entry 91, 3-[2-(pyridin-3-yl)ethynyl]benzoic acid]	5.00 to 6.00
O=C(O)c1cccc(C#Cc2ccccc2)c1 [Entry 92, 3-(2-phenylethynyl)benzoic acid]	4.00 to 5.00
O=C(O)c1cccc(C#Cc2ccncc2)c1 [Entry 93, 3-[2-(pyridin-4-yl)ethynyl]benzoic acid]	5.00 to 6.00
COc1ccc(C#Cc2cccc(C(=O)O)c2)cc1 [Entry 94, 3-[2-(4-methoxyphenyl)ethynyl]benzoic acid]	3.00 to 4.00
CN(C)Cc1ccc(-c2c(C#Cc3ccccc3)cccc2C(=O)O)cc1 [Entry 95, 2-{4-[(dimethylamino)methyl]phenyl}-3-(2-phenylethynyl)benzoic acid trifluoroacetic acid salt]	5.00 to 6.00
O=C(O)c1cccc(C#Cc2ccccc2)c1C1=CCNCC1 [Entry 96, 3-(2-phenylethynyl)-2-(1,2,3,6-tetrahydropyridin-4-yl)benzoic acid trifluoroacetic acid salt]	5.00 to 6.00
O=C(O)c1cccc(C#Cc2ccccc2)c1-c1ccncc1 [Entry 97, 3-(2-phenylethynyl)-2-(pyridin-4-yl)benzoic acid trifluoroacetic acid salt]	4.00 to 5.00
CS(=O)(=O)c1ccc(-c2c(C#Cc3ccccc3)cccc2C(=O)O)cc1 [Entry 98, 2-(4-methanesulfonylphenyl)-3-(2-phenylethynyl)benzoic acid]	4.00 to 5.00
O=C(O)c1cccc(C#Cc2ccccc2)c1-c1cn[nH]c1 [Entry 99, 3-(2-phenylethynyl)-2-(1H-pyrazol-4-yl)benzoic acid]	5.00 to 6.00
O=C(O)c1cccc(C#Cc2ccccc2)c1-c1cncnc1 [Entry 100, 3-(2-phenylethynyl)-2-(pyrimidin-5-yl)benzoic acid]	3.00 to 4.00
Cn1cc(-c2c(C#Cc3ccccc3)cccc2C(=O)O)cn1 [Entry 101, 2-(1-methyl-1H-pyrazol-4-yl)-3-(2-phenylethynyl)benzoic acid]	5.00 to 6.00
O=C(O)c1cccc(C#Cc2ccccc2)c1N1CCCC1c1ccccc1 (stereo not drawn) [Entry 102, 3-(2-phenylethynyl)-2-(2-phenylpyrrolidin-1-yl)benzoic acid]	5.00 to 6.00
CN(C)C1CCN(c2c(C#Cc3ccccc3)cccc2C(=O)O)C1 (stereo not drawn) [Entry 103, 2-(3-(dimethylamino)pyrrolidin-1-yl)-3-(phenylethynyl)benzoic acid]	4.00 to 5.00
O=C(O)c1cccc(C#Cc2ccccc2)c1N1CCC(C(=O)O)C1 (stereo not drawn) [Entry 104, 1-(2-carboxy-6-(phenylethynyl)phenyl)pyrrolidine-3-carboxylic acid]	4.00 to 5.00
O=C(O)c1cccc(C#Cc2ccccc2)c1N1CC[C@H](O)C1 [Entry 105, (S)-2-(3-hydroxypyrrolidin-1-yl)-3-(phenylethynyl)benzoic acid]	3.00 to 4.00
O=C(O)c1cccc(C#Cc2ccccc2)c1N1CCCC1 [Entry 106, 3-(phenylethynyl)-2-(pyrrolidin-1-yl)benzoic acid]	4.00 to 5.00
O=C(O)c1cccc(C#Cc2ccccc2)c1N1CCNCC1 [Entry 107, 3-(phenylethynyl)-2-(piperazin-1-yl)benzoic acid]	4.00 to 5.00
O=C(O)c1cccc(C#Cc2ccccc2)c1NCc1ccccc1 [Entry 108, 2-(benzylamino)-3-(phenylethynyl)benzoic acid]	4.00 to 5.00
O=C(O)c1cccc(C#Cc2ccccc2)c1-n1cc(-c2ccccc2)nn1 [Entry 109, 2-(4-phenyl-1H-1,2,3-triazol-1-yl)-3-(2-phenylethynyl)benzoic acid]	4.00 to 5.00

From patent US10421718B2, “EBNA1 inhibitors and their method of use” (priority 2013, dated 2019)
